Measurements: ChEMBL document CHEMBL5653631, “A Potent and Selective ULK1 Inhibitor Suppresses Autophagy and Sensitizes Cancer Cells to Nutrient Stress” (iScience, 2018)

Key:
[1] = molecular target: T1, Dual specificity tyrosine-phosphorylation-regulated kinase 2 (Homo sapiens) (UniProt Q92630); experiment: Inhibition of human recombinant DYRK2 at 15 nM related to control ULK1
T1 sequence (whole entry): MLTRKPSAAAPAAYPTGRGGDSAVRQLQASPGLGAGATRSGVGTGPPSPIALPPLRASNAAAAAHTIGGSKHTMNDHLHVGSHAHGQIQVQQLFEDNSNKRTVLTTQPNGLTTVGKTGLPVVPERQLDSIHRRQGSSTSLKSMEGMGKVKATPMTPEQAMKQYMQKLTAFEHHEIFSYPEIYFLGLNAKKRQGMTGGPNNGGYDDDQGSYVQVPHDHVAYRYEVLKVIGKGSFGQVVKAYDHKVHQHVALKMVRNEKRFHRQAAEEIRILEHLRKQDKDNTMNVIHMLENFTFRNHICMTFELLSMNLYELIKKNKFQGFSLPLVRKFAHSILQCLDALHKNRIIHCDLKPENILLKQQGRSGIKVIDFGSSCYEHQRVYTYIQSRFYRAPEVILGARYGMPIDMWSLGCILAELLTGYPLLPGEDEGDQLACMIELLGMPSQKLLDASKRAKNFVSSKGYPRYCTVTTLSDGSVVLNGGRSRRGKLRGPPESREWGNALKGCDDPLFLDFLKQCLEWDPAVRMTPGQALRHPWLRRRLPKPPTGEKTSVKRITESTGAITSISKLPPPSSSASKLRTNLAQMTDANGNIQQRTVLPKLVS

[2] = species on record: Homo sapiens; experiment: Inhibition of human recombinant KHS1 at 15 nM related to control ULK1
[3] = molecular target: T2, Serine/threonine-protein kinase Sgk1 (Homo sapiens) (UniProt O00141); experiment: Inhibition of human recombinant SGK1 at 15 nM related to control ULK1
T2 sequence (whole entry): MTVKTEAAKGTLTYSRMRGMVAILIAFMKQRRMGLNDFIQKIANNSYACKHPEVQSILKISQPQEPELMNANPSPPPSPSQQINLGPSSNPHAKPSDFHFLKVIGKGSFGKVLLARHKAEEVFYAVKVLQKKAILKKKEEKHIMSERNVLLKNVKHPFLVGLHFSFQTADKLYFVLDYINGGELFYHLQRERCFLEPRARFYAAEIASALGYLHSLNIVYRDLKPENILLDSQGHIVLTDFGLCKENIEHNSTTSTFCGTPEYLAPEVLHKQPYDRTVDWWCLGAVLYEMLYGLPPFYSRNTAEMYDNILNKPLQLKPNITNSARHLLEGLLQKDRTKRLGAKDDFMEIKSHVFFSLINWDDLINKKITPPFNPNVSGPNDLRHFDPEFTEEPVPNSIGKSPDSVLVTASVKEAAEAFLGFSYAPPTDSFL

[4] = molecular target: T3, SNF-related serine/threonine-protein kinase (Homo sapiens) (UniProt Q9NRH2); experiment: Inhibition of human recombinant SNRK at 15 nM related to control ULK1
T3 sequence (whole entry): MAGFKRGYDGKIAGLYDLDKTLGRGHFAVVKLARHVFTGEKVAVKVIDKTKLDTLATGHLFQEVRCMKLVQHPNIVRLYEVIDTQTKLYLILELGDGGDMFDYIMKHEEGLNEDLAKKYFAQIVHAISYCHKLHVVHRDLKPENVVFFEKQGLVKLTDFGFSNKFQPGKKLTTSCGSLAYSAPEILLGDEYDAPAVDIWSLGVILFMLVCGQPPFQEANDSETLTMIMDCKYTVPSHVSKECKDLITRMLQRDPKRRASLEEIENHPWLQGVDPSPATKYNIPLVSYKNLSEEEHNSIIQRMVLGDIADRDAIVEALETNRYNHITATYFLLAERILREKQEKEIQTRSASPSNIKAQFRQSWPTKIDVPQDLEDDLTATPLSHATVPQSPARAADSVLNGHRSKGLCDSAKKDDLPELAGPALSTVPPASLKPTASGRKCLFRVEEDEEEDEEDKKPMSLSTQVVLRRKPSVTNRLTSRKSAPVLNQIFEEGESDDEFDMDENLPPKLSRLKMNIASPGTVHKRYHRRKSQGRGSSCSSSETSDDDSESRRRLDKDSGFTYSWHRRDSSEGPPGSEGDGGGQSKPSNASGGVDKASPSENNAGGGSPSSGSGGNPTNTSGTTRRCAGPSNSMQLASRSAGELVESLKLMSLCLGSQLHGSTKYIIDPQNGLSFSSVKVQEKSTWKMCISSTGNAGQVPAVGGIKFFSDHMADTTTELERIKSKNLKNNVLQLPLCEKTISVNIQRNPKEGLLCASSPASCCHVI

[5] = molecular target: Ribosomal protein S6 kinase alpha-2 (Homo sapiens) (UniProt Q15349); experiment: Inhibition of human recombinant RSK3 at 40 nM related to control ULK1
Chain of Ribosomal protein S6 kinase alpha-2 (Homo sapiens) (Q15349 whole entry): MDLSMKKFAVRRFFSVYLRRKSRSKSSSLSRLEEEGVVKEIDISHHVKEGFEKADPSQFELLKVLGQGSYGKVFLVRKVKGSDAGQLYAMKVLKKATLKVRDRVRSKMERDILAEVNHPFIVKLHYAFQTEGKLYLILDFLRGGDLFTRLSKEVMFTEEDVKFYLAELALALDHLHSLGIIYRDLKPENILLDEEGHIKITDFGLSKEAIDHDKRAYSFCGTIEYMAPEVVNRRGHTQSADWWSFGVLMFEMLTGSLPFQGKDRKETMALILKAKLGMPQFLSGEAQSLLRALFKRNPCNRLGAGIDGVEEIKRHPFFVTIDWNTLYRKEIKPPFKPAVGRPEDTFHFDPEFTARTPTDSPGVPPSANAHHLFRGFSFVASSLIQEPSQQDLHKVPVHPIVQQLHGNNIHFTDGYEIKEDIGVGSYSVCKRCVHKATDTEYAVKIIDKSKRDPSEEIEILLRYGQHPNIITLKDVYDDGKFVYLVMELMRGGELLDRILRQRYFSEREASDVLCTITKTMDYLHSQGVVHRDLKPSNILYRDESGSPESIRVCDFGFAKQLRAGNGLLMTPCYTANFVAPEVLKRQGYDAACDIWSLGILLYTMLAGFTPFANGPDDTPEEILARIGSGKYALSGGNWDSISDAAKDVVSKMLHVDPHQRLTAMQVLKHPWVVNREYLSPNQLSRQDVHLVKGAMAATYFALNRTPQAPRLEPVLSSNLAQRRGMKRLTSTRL

Compound	fold change (FC) [1]	fold change (FC) [2]	fold change (FC) [3]	fold change (FC) [4]	fold change (FC) [5]
CC(C)[C@H](NC(=O)c1cc(-c2cnn3cc(-c4ccc(OCCN5CCCCC5)cc4)cnc23)cs1)C(F)(F)F	0.09	0.16	0.05	0.09	–
O=C(N[C@@H](C1CC1)C(F)(F)F)c1cc(-c2cnn3cc(-c4ccc(F)cc4)cnc23)cs1	–	–	–	–	0
